The target in test [1] is T1, Fgr T338F (Homo sapiens, UniProt P09769, T334F).
T1 construct: Recombinant near-full-length kinases, consisting of the SH2, SH3 and kinase domains plus the negative regulatory tail; made in house; host or cells: E. coli BL21Star (DE3), co-expressed with Csk and PTP1B
Briefly: Z'-LYTE in vitro kinase assay. The format is biochemical. The conditions noted are these: Fgr T338F; Tyr-2 peptide 1.0 μM; read-out: ATP Km.
Experimental: (§3) Assays were performed in quadruplicate in 384-well low volume, non-binding, black polystyrene microplates (Corning) according to the manufacturer’s instructions. Briefly, this assay measures phosphorylation of the Tyr2 peptide substrate which is tagged with coumarin and fluorescein on its N- and C-termini, respectively, to form a FRET pair. After the kinase reaction, a development step involves site-specific proteolytic cleavage of the unphosphorylated but not the phosphorylated peptide. […] Kinase reactions were run in 50 mM HEPES, pH 7.5, 10 mM MgCl2, 1 mM EGTA, and 0.01% BRIJ-35 (buffer supplied by the manufacturer). […] Following incubation for 1 h at ambient temperature, reactions were quenched by addition of the development protease, and coumarin and fluorescein fluorescence were measured 1 h later on a Molecular Devices SpectraMax M5 plate reader. […] For experiments with inhibitors, compounds were preincubated with kinase for 30 min prior to initiation of the reaction by the addition of ATP.

Test [2] deals with T2, Lyn T338M (Homo sapiens, UniProt P07948, T319M).
T2 construct: Recombinant near-full-length kinases, consisting of the SH2, SH3 and kinase domains plus the negative regulatory tail; made in house; host or cells: E. coli BL21Star (DE3), co-expressed with Csk and PTP1B
The experiment in a line: Z'-LYTE in vitro kinase assay. As to conditions: Tyr-2 peptide 1.0 μM, read-out: ATP Km. In kind it is biochemical.

For test [3], the target named is T3, Hck T338M (Homo sapiens, UniProt P08631, T333M).
T3 construct: Recombinant near-full-length kinases, consisting of the SH2, SH3 and kinase domains plus the negative regulatory tail; made in house; host or cells: E. coli BL21Star (DE3), co-expressed with Csk and PTP1B
The experiment in a line: Z'-LYTE in vitro kinase assay. In kind it is biochemical. The conditions noted are these: Hck T338M; Tyr-2 peptide 1.0 μM; read-out: ATP Km.

Test [4] concerns the target T4, Hck wild-type (Homo sapiens, UniProt P08631).
T4 construct: Recombinant near-full-length kinases, consisting of the SH2, SH3 and kinase domains plus the negative regulatory tail; made in house; host or cells: E. coli BL21Star (DE3), co-expressed with Csk and PTP1B
The experiment in a line: Z'-LYTE in vitro kinase assay. The format is biochemical. The conditions noted are these: Tyr-2 peptide 1.0 μM, read-out: ATP Km.

Test [5] has as its target T5, Lyn T338L (Homo sapiens, UniProt P07948, T319L).
T5 construct: Recombinant near-full-length kinases, consisting of the SH2, SH3 and kinase domains plus the negative regulatory tail; made in house; host or cells: E. coli BL21Star (DE3), co-expressed with Csk and PTP1B
Briefly: Z'-LYTE in vitro kinase assay. In kind it is biochemical. As to conditions: Tyr-2 peptide 1.0 μM, read-out: ATP Km.

Test [6] has as its target T6, Fgr wild-type (Homo sapiens, UniProt P09769).
T6 construct: Recombinant near-full-length kinases, consisting of the SH2, SH3 and kinase domains plus the negative regulatory tail; made in house; host or cells: E. coli BL21Star (DE3), co-expressed with Csk and PTP1B
Briefly: Z'-LYTE in vitro kinase assay. In kind it is biochemical. As to conditions: Tyr-2 peptide 1.0 μM, read-out: ATP Km.
Experimental: as §3

In test [7] the target is T7, Lyn wild-type (Homo sapiens, UniProt P07948).
T7 construct: Recombinant near-full-length kinases, consisting of the SH2, SH3 and kinase domains plus the negative regulatory tail; made in house; host or cells: E. coli BL21Star (DE3), co-expressed with Csk and PTP1B
Briefly: Z'-LYTE in vitro kinase assay. The format is biochemical. The conditions noted are these: Tyr-2 peptide 1.0 μM, read-out: ATP Km.

The target of test [8] is T8, Fgr T338M (Homo sapiens, UniProt P09769, T334M).
T8 construct: Recombinant near-full-length kinases, consisting of the SH2, SH3 and kinase domains plus the negative regulatory tail; made in house; host or cells: E. coli BL21Star (DE3), co-expressed with Csk and PTP1B
Briefly: Z'-LYTE in vitro kinase assay. As to conditions: Fgr T338M; Tyr-2 peptide 1.0 μM; read-out: ATP Km. In kind it is biochemical.
Experimental: as §3

Test [9] concerns the target T9, Fgr T338L (Homo sapiens, UniProt P09769, T334L).
T9 construct: Recombinant near-full-length kinases, consisting of the SH2, SH3 and kinase domains plus the negative regulatory tail; made in house; host or cells: E. coli BL21Star (DE3), co-expressed with Csk and PTP1B
The experiment in a line: Z'-LYTE in vitro kinase assay. In kind it is biochemical. The conditions noted are these: Tyr-2 peptide 1.0 μM, read-out: ATP Km.
Experimental: as §3

Test [10] concerns the target T10, Lyn T338F (Homo sapiens, UniProt P07948, T319F).
T10 construct: Recombinant near-full-length kinases, consisting of the SH2, SH3 and kinase domains plus the negative regulatory tail; made in house; host or cells: E. coli BL21Star (DE3), co-expressed with Csk and PTP1B
Briefly: Z'-LYTE in vitro kinase assay. The conditions noted are these: Tyr-2 peptide 1.0 μM, read-out: ATP Km. The format is biochemical.

For test [11], the target named is T11, Hck T338F (Homo sapiens, UniProt P08631, T333F).
T11 construct: Recombinant near-full-length kinases, consisting of the SH2, SH3 and kinase domains plus the negative regulatory tail; made in house; host or cells: E. coli BL21Star (DE3), co-expressed with Csk and PTP1B
Briefly: Z'-LYTE in vitro kinase assay. The format is biochemical. The conditions noted are these: Hck T338F; Tyr-2 peptide 1.0 μM; read-out: ATP Km.

Test [12] has as its target T12, Hck T338L (Homo sapiens, UniProt P08631, T333L).
T12 construct: Recombinant near-full-length kinases, consisting of the SH2, SH3 and kinase domains plus the negative regulatory tail; made in house; host or cells: E. coli BL21Star (DE3), co-expressed with Csk and PTP1B
The experiment in a line: Z'-LYTE in vitro kinase assay. The format is biochemical. As to conditions: Hck T338L; Tyr-2 peptide 1.0 μM; read-out: ATP Km.

Test [13] has as its system MOLM13 cells (parent). The experiment in a line: CellTiter-Blue cell viability. The conditions noted are these: Homo sapiens, MOLM-13, S11 Fig, read-out: PRT062607 IC50, nM (growth suppression). The format is cell-based, human. Here is the method:
(§1) Gibco/ThermoFisher). Parental TF-1 cells also require recombinant human GM-CSF (1 ng/mL; ThermoFisher). MOLM13 and MOLM14 cells were obtained from Leibniz Institute Deutsche Sammlung von Mikroorganismen (DSMZ) and grown in RPMI 1640 medium containing 20% FBS and Antibiotic-Antimycotic. […] Cell viability was assessed using the CellTiter-Blue reagent according to the manufacturer’s instructions (Promega). Fluorescence intensity, which correlates directly with viable cell number, was measured using a SpectraMax M5 microplate reader. Each experiment included three technical replicates per condition, and each experiment was repeated at least three times.
In general terms: The colour change of resazurin is a common sign of viable cells or microbes.

Test [14] deals with MOLM14 cells (parent). The experiment in a line: CellTiter-Blue cell viability. In kind it is cell-based, human. The conditions noted are these: Homo sapiens, MOLM-14, S11 Fig, read-out: PRT062607 IC50, nM (growth suppression). How it is done: as §1
Test [15] deals with MV4-11 cells (parent). The experiment in a line: CellTiter-Blue cell viability. The format is cell-based, human. As to conditions: Homo sapiens; S11 Fig; MV4-11 Parent; read-out: PRT062607 IC50, nM (growth suppression). How it is done: as §1
The subject of test [16] is MV4-11, MOLM13 and MOLM14 parent and A-419259-resistant cell populations. The experiment in a line: CellTiter-Blue cell viability, parent and resistant AML populations as a group. In kind it is cell-based, human. Here is the method:
(§2) Cell viability was assessed using the CellTiter-Blue reagent according to the manufacturer’s instructions (Promega). Fluorescence intensity, which correlates directly with viable cell number, was measured using a SpectraMax M5 microplate reader. Each experiment included three technical replicates per condition, and each experiment was repeated at least three times. […] Viability of each cell population was measured three times per week using the CellTiter-Blue assay.

Test [17] relates to MOLM14 R1 (A-419259-resistant population). The experiment in a line: CellTiter-Blue cell viability. In kind it is cell-based, human. The conditions noted are these: Homo sapiens, MOLM-14, S11 Fig, read-out: PRT062607 IC50, nM (growth suppression). Here is the method:
as §2

Test [18] has as its system MOLM14 R2 (A-419259-resistant population). The experiment in a line: CellTiter-Blue cell viability. The format is cell-based, human. As to conditions: Homo sapiens, MOLM-14, S11 Fig, read-out: PRT062607 IC50, nM (growth suppression). Here is the method: as §2
For test [19], the system named is MV4-11 R3 (A-419259-resistant population). Briefly: CellTiter-Blue cell viability. The format is cell-based, human. As to conditions: Homo sapiens, S11 Fig, read-out: PRT062607 IC50, nM (growth suppression). Here is the method: as §2
The test system of test [20] is MOLM14 R3 (A-419259-resistant population). Briefly: CellTiter-Blue cell viability. In kind it is cell-based, human. The conditions noted are these: Homo sapiens, MOLM-14, S11 Fig, read-out: PRT062607 IC50, nM (growth suppression). How it is done:
as §2

Test [21] relates to MOLM13 R3 (A-419259-resistant population). Briefly: CellTiter-Blue cell viability. The format is cell-based, human. As to conditions: Homo sapiens, MOLM-13, S11 Fig, read-out: PRT062607 IC50, nM (growth suppression). How it is done:
as §2

The test system of test [22] is MV4-11 R2 (A-419259-resistant population). The experiment in a line: CellTiter-Blue cell viability. The format is cell-based, human. The conditions noted are these: Homo sapiens, S11 Fig, read-out: PRT062607 IC50, nM (growth suppression). How it is done: as §2
Test [23] has as its system myeloid Src-family kinases. Details: method as in S. Hellwig and T. Smithgall, unpublished data. As to conditions: ref S. Hellwig and T. Smithgall, unpublished data; cited from earlier work.

Broadly, the Km is the substrate concentration at which the rate is half of its maximum. By IC50 is commonly meant the concentration that gives 50% inhibition.

T3 sequence (P08631 78-526 T333M limits assumed): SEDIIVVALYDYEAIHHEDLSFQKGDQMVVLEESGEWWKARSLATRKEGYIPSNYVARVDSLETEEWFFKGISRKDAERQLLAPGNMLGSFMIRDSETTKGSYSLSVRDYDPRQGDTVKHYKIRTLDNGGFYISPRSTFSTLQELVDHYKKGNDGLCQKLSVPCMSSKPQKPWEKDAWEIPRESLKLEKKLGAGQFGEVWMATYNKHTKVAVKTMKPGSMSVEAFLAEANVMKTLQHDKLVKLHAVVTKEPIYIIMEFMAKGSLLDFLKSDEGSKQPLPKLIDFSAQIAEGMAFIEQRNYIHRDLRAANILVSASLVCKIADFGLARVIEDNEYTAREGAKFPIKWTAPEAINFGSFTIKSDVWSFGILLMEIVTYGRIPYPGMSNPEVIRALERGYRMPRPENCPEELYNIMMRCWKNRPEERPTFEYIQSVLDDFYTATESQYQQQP
T12 sequence (P08631 78-526 T333L limits assumed): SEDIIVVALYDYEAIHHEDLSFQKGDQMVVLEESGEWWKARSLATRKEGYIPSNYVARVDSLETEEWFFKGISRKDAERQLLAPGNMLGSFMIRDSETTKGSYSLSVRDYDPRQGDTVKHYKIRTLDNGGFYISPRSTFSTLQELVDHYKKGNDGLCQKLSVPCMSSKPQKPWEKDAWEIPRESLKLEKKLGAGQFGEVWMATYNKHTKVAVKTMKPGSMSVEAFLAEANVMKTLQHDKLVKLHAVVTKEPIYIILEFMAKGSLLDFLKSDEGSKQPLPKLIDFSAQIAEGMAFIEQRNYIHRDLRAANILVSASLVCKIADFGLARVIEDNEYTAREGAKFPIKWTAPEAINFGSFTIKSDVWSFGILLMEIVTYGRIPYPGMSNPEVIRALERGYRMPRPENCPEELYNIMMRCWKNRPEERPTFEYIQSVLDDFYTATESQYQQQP
T4 sequence (P08631 78-526 limits assumed): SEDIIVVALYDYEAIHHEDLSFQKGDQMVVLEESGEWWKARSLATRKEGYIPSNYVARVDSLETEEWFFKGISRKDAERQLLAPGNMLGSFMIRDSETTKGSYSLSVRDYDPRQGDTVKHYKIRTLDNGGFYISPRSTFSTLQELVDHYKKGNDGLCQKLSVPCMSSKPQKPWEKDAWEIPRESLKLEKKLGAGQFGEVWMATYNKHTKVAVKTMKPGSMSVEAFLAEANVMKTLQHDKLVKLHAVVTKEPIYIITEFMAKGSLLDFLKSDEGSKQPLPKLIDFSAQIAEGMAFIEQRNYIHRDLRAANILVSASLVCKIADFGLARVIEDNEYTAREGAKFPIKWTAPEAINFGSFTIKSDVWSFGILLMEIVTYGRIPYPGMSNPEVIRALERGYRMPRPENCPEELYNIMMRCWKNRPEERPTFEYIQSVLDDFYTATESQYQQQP
T2 sequence (P07948 63-512 T319M limits assumed): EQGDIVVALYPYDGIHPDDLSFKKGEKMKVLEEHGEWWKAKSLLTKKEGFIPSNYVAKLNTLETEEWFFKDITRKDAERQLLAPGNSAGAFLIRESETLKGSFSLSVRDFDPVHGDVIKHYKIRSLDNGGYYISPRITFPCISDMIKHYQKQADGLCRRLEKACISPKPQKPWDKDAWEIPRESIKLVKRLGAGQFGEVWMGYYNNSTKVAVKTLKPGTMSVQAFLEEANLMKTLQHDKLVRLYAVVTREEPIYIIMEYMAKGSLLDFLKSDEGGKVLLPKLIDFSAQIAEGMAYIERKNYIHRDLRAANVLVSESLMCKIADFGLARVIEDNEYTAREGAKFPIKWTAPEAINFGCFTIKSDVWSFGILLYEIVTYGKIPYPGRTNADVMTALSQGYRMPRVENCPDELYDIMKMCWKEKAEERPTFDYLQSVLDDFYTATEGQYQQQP
T10 sequence (P07948 63-512 T319F limits assumed): as the sequence (P07948 63-512 T319M limits assumed) above, with M257F counted along it
T5 sequence (P07948 63-512 T319L limits assumed): as the sequence (P07948 63-512 T319M limits assumed) above, with M257L counted along it
T11 sequence (P08631 78-526 T333F limits assumed): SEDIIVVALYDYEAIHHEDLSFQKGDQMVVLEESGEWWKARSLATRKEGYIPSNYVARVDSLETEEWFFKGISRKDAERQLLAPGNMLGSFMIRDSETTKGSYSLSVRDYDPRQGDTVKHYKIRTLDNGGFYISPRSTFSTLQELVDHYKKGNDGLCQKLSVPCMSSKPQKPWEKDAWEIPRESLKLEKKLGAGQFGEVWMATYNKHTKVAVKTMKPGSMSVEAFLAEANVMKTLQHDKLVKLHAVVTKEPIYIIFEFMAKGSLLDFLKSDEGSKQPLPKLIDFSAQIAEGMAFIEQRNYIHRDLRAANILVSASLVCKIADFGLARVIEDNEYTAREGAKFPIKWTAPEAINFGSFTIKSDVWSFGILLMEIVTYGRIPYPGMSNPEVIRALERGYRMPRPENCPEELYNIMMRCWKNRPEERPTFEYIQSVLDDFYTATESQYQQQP
T7 sequence (P07948 63-512 limits assumed): as the sequence (P07948 63-512 T319M limits assumed) above, with M257T counted along it

In the case of `Nc1ncnc2c1ncn2[C@@H]1O[C@H](COP(=O)(O)OP(=O)(O)OP(=O)(O)O)[C@@H](O)[C@H]1O` [ATP], the Km is 95.7 µM in [1]; 7 µM in test [2]; 6.9 µM in [3]; 26 µM in test [4]; 24 µM in test [5]; 17.9 µM in test [6]. The Michaelis-Menten constant (Km) in [7] was found to be 32.8 µM; in [8], 5.3 µM; in test [9] it was 10 µM; in [10], 87.3 µM; in test [11], 42 µM; in test [12] it was 17.2 µM.
Regarding `NC(=O)c1cnc(N[C@@H]2CCCC[C@@H]2N)nc1Nc1cccc(-n2nccn2)c1` [PRT062607], the IC50 in test [13] is 1380 ± 124 nM; in test [14] it was 1330 ± 183 nM; in test [15] it was 453 ± 90.7 nM; in [16] (Homo sapiens, all three parent AML cell lines and their resistant counterparts, read-out: IC50 values for growth suppression), 0.5 to 2 µM; in test [17], 2030 ± 1090 nM; in [18], 1640 ± 154 nM. Moreover, the IC50 in test [19] was 795 ± 128 nM; in [20], 1200 ± 128 nM; in test [21] it was 1990 ± 377 nM; in test [22], 1720 ± 93.5 nM. Moreover, the “effect of added Syk inhibitor on sensitivity to A-419259” value in [16] (fixed concentrations 50, 100 and 200 μM, 72 h, exception MV4-11 R2) was “did not affect”.
For `CC(C)(C)c1cc(NC(=O)Nc2ccc(-c3cn4c(n3)sc3cc(OCCN5CCOCC5)ccc34)cc2)no1` [quizartinib], the “inhibition of myeloid Src-family kinases” value in test [23] is on record as “does not inhibit”.

Values taken from PMC6886798, “Expression of myeloid Src-family kinases is associated with poor prognosis in AML and influences Flt3-ITD kinase inhibitor acquired resistance” (PLoS ONE, 2019).
